Results: PMC7696167 (Pharmaceutics, 2020)

Legend:
[1] = Population pharmacokinetic model of oral roscovitine and metabolite M3, first dose, ROSCO-CF trial
[2] = tested on: P-glycoprotein 1 (P-gp, MDR1 or ABCB1) efflux pump; parameters: method as in PMID 20699410; details: cited from earlier work
[3] = tested on: CYP3A4; parameters: method as in PMID 18048486; details: cited from earlier work
[4] = tested on: CYP2B6; parameters: method as in PMID 18048486; details: cited from earlier work
[5] = population estimate, adult CF patients, oral
[6] = population estimate, covariate effect

CC[C@H](CO)Nc1nc(NCc2ccccc2)c2ncn(C(C)C)c2n1 [roscovitine, (R)-roscovitine]
rate of absorption in patients treated with PPIs ([1]; oral roscovitine, adult CF patients): slower rate of absorption
CV1: coefficient of variation of first inverse Gaussian absorption function ([1]; population estimate): 0.542
CV2: coefficient of variation of second inverse Gaussian absorption function ([1]; population estimate): 0.354
k12: distribution rate to the peripheral compartment ([1]; population estimate): 1.82 h⁻¹
k21: distribution rate from the peripheral compartment ([1]; population estimate): 0.768 h⁻¹
kmet: systemic conversion rate of roscovitine in its carboxylate metabolite M3 ([1]; population estimate): 2.07 h⁻¹
T1max: time at which the first inverse Gaussian absorption function reaches its maximum [1, 5]: 0.676 h
dT2max (T2max = T1max + dT2max), inverse Gaussian absorption parameter [1, 5]: 1.04 h
π1: weight associated with the first input fraction [1, 5]: 0.285
D50: oral dose of roscovitine for which Fdose is 50% ([1]; population estimate, adult CF patients, oral 200-800 mg): 1190 µmol
β (PPI = 1) on T1max: coefficient for modification of T1max in patients taking PPI [1, 6]: 0.680
β height (cm) on V: coefficient for the effect of height on V/F [1, 6]: 6.47
V/F: apparent volume of the central compartment after oral administration ([1]; population estimate, single parameter common to roscovitine and M3, reference height 170 cm): 62.2 L
substrate for P-glycoprotein 1 efflux pump [2]: substrate
substrate for CYP3A4 [3]: substrate
substrate for CYP2B6 [4]: substrate

CC[C@@H](Nc1nc(NCc2ccccc2)c2ncn(C(C)C)c2n1)C(=O)O [M3]
ke: elimination rate of the metabolite ([1]; population estimate): 2.58 h⁻¹
